Reference: the supplement of paper PMC9663587

Assays:
Paclitaxel = compound: CC(=O)O[C@H]1C(=O)[C@@]2(C)[C@H]([C@H](OC(=O)c3ccccc3)[C@]3(O)C[C@H](OC(=O)[C@H](O)[C@@H](NC(=O)c4ccccc4)c4ccccc4)C(C)=C1C3(C)C)[C@]1(OC(C)=O)CO[C@@H]1C[C@@H]2O [Paclitaxel]
BSJ-03-123 [1] = compound: T1, CC(=O)c1c(C)c2cnc(Nc3ccc(N4CCN(CCOCCOCCOCCNC(=O)COc5cccc6c5C(=O)N(C5CCC(=O)NC5=O)C6=O)CC4)cn3)nc2n(C2CCCC2)c1=O [BSJ-03-123]
INK128/MLN0128 = compound: CC(C)n1nc(-c2ccc3oc(N)nc3c2)c2c(N)ncnc21 [INK128/MLN0128]
[2] = compound: CCN1CCN(Cc2ccc(Nc3ncc(F)c(-c4cc(F)c5nc(C)n(C(C)C)c5c4)n3)nc2)CC1
Neratinib/HKI272 [3] = compound: T2, CCOc1cc2ncc(C#N)c(Nc3ccc(OCc4ccccn4)c(Cl)c3)c2cc1NC(=O)/C=C/CN(C)C [Neratinib/HKI272]
Volasertib/BI6727 = compound: CC[C@@H]1C(=O)N(C)c2cnc(Nc3ccc(C(=O)N[C@H]4CC[C@H](N5CCN(CC6CC6)CC5)CC4)cc3OC)nc2N1C(C)C [Volasertib/BI6727]
LEE011/Ribociclib [4] = compound: T3, CN(C)C(=O)c1cc2cnc(Nc3ccc(N4CCNCC4)cn3)nc2n1C1CCCC1 [LEE011/Ribociclib]
THZ531 = compound: CN(C)C/C=C/C(=O)Nc1ccc(C(=O)N2CCC[C@@H](Nc3ncc(Cl)c(-c4c[nH]c5ccccc45)n3)C2)cc1 [THZ531]
ABT-737 = compound: CN(C)CC[C@H](CSc1ccccc1)Nc1ccc(S(=O)(=O)NC(=O)c2ccc(N3CCN(Cc4ccccc4-c4ccc(Cl)cc4)CC3)cc2)cc1[N+](=O)[O-] [ABT-737]
[5] = compound: COc1ccc2c(c1)[C@]1(C[C@H]1c1ccc3c(/C=C/c4ccc(CN5C[C@@H](C)O[C@@H](C)C5)cc4)n[nH]c3c1)C(=O)N2
Pictilisib/GDC0941 = compound: CS(=O)(=O)N1CCN(Cc2cc3nc(-c4cccc5[nH]ncc45)nc(N4CCOCC4)c3s2)CC1 [Pictilisib/GDC0941]
Ceritinib/LDK378 = compound: Cc1cc(Nc2ncc(Cl)c(Nc3ccccc3S(=O)(=O)C(C)C)n2)c(OC(C)C)cc1C1CCNCC1 [Ceritinib/LDK378]
Taselisib/GDC0032 = compound: Cc1nc(-c2cn3c(n2)-c2ccc(-c4cnn(C(C)(C)C(N)=O)c4)cc2OCC3)n(C(C)C)n1 [Taselisib/GDC0032]
Tivantinib/ARQ197 = compound: O=C1NC(=O)[C@@H](c2cn3c4c(cccc24)CCC3)[C@@H]1c1c[nH]c2ccccc12 [Tivantinib/ARQ197]
YKL-5-124 = compound: C=CC(=O)Nc1ccc(C(=O)Nc2[nH]nc3c2CN(C(=O)N[C@H](CN(C)C)c2ccccc2)C3(C)C)cc1 [YKL-5-124]; experiment: GR value, 72 h; higher = faster growth (1 = untreated, <0 = killing);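 further: breast cancer and non-malignant breast epithelial lines, nine half-log doses, viable cells counted by Hoechst and LIVE/DEAD dye imaging versus time-zero plates and DMSO controls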
BSJ-03-123 [6] = compound: T1, BSJ-03-123; experiment: as above
[7] = compound: CCN1CCN(Cc2ccc(Nc3ncc(F)c(-c4cc(F)c5nc(C)n(C(C)C)c5c4)n3)nc2)CC1; experiment: as above
Neratinib/HKI272 [8] = compound: T2, Neratinib/HKI272; experiment: as above
[9] = compound: CCc1cnn2c(NCc3ccc[n+]([O-])c3)cc(N3CCCC[C@H]3CCO)nc12; experiment: as above
LEE011/Ribociclib [10] = compound: T3, LEE011/Ribociclib; experiment: as above
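Wherever GR50, 72 h is given: breast cancer and non-malignant breast epithelial cell lines, Deep Dye Drop or Dye Drop imaging, nine half-log doses, GR normalized to time-zero plates and DMSO-only controls.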

UACC812
GR50, 72 h (Paclitaxel): 0.00042 µM | GR50, 72 h (BSJ-03-123 [1]): 0.836 µM | GR50, 72 h (INK128/MLN0128): 0.0021 µM | GR50, 72 h [2]: 0.00485 µM | GR50, 72 h (Neratinib/HKI272 [3]): 0.00313 µM | GR50, 72 h (Volasertib/BI6727): 0.00975 µM | GR50, 72 h (LEE011/Ribociclib [4]): 0.0124 µM | GR50, 72 h (THZ531): > 1 µM | GR50, 72 h (ABT-737): 3.73 µM | GR50, 72 h [5]: 0.0127 µM | GR50, 72 h (Pictilisib/GDC0941): 0.106 µM | GR50, 72 h (Ceritinib/LDK378): 3.48 µM | GR50, 72 h (Taselisib/GDC0032): 0.0622 µM | GR50, 72 h (Tivantinib/ARQ197): 0.175 µM | GR value (YKL-5-124; 0.001 µM): 0.609 GR | GR value (YKL-5-124; 0.003162 µM): 0.318 GR | GR value (YKL-5-124; 0.01 µM): 0.142 GR | GR value (YKL-5-124; 0.03162 µM): -0.122 GR | GR value (YKL-5-124; 0.1 µM): -0.106 GR | GR value (YKL-5-124; 0.3162 µM): -0.151 GR | GR value (YKL-5-124; 1 µM): 0.0505 GR | GR value (YKL-5-124; 3.162 µM): -0.246 GR | GR value (YKL-5-124; 10 µM): -0.423 GR | GR value (BSJ-03-123 [6]; 0.001 µM): 0.833 GR | GR value (BSJ-03-123 [6]; 0.003162 µM): 0.862 GR | GR value (BSJ-03-123 [6]; 0.01 µM): 0.699 GR | GR value (BSJ-03-123 [6]; 0.03162 µM): 0.711 GR | GR value (BSJ-03-123 [6]; 0.1 µM): 0.74 GR | GR value (BSJ-03-123 [6]; 0.3162 µM): 0.887 GR | GR value (BSJ-03-123 [6]; 1 µM): 0.48 GR | GR value (BSJ-03-123 [6]; 3.162 µM): 0.408 GR | GR value (BSJ-03-123 [6]; 10 µM): -0.328 GR | GR value ([7]; 0.001 µM): 0.849 GR | GR value ([7]; 0.003162 µM): 0.562 GR | GR value ([7]; 0.01 µM): 0.349 GR | GR value ([7]; 0.03162 µM): -0.073 GR | GR value ([7]; 0.1 µM): -0.212 GR | GR value ([7]; 0.3162 µM): -0.252 GR | GR value ([7]; 1 µM): -0.319 GR | GR value ([7]; 3.162 µM): -0.407 GR | GR value ([7]; 10 µM): -0.565 GR | GR value (Neratinib/HKI272 [8]; 0.0003162 µM): 1.02 GR | GR value (Neratinib/HKI272 [8]; 0.001 µM): 0.785 GR | GR value (Neratinib/HKI272 [8]; 0.003162 µM): 0.449 GR | GR value (Neratinib/HKI272 [8]; 0.01 µM): 0.258 GR | GR value (Neratinib/HKI272 [8]; 0.03162 µM): -0.145 GR | GR value (Neratinib/HKI272 [8]; 0.1 µM): -0.384 GR | GR value (Neratinib/HKI272 [8]; 0.3162 µM): -0.493 GR | GR value (Neratinib/HKI272 [8]; 1 µM): -0.574 GR | GR value (Neratinib/HKI272 [8]; 3.162 µM): -0.747 GR | GR value ([9]; 0.0001 µM): 1.17 GR | GR value ([9]; 0.0003162 µM): 1.22 GR | GR value ([9]; 0.001 µM): 1.63 GR | GR value ([9]; 0.003162 µM): 1.63 GR | GR value ([9]; 0.01 µM): 1.28 GR | GR value ([9]; 0.03162 µM): -0.347 GR | GR value ([9]; 0.1 µM): -0.932 GR | GR value ([9]; 0.3162 µM): -0.948 GR | GR value ([9]; 1 µM): -0.949 GR | GR value (LEE011/Ribociclib [10]; 0.001 µM): 0.753 GR | GR value (LEE011/Ribociclib [10]; 0.003162 µM): 0.55 GR | GR value (LEE011/Ribociclib [10]; 0.01 µM): 0.569 GR | GR value (LEE011/Ribociclib [10]; 0.03162 µM): 0.333 GR | GR value (LEE011/Ribociclib [10]; 0.1 µM): 0.309 GR | GR value (LEE011/Ribociclib [10]; 0.3162 µM): 0.218 GR | GR value (LEE011/Ribociclib [10]; 1 µM): 0.148 GR | GR value (LEE011/Ribociclib [10]; 3.162 µM): 0.171 GR | GR value (LEE011/Ribociclib [10]; 10 µM): 0.0704 GR

HCC1937
GR50, 72 h (Paclitaxel): 0.00245 µM | GR50, 72 h (BSJ-03-123 [1]): 9.94 µM | GR50, 72 h (INK128/MLN0128): 0.0515 µM | GR50, 72 h [2]: 4.82 µM | GR50, 72 h (Neratinib/HKI272 [3]): 1.46 µM | GR50, 72 h (Volasertib/BI6727): 0.0119 µM | GR50, 72 h (LEE011/Ribociclib [4]): > 10 µM | GR50, 72 h (THZ531): 0.26 µM | GR50, 72 h (ABT-737): 5.77 µM | GR50, 72 h [5]: 0.00432 µM | GR50, 72 h (Pictilisib/GDC0941): 2.42 µM | GR50, 72 h (Ceritinib/LDK378): 3.53 µM | GR50, 72 h (Taselisib/GDC0032): 1.23 µM | GR50, 72 h (Tivantinib/ARQ197): 0.649 µM | GR value (YKL-5-124; 0.001 µM): 0.676 GR | GR value (YKL-5-124; 0.003162 µM): 0.451 GR | GR value (YKL-5-124; 0.01 µM): 0.249 GR | GR value (YKL-5-124; 0.03162 µM): 0.165 GR | GR value (YKL-5-124; 0.1 µM): 0.0669 GR | GR value (YKL-5-124; 0.3162 µM): 0.0473 GR | GR value (YKL-5-124; 1 µM): -0.0273 GR | GR value (YKL-5-124; 3.162 µM): -0.052 GR | GR value (YKL-5-124; 10 µM): -0.196 GR | GR value (BSJ-03-123 [6]; 0.001 µM): 1.11 GR | GR value (BSJ-03-123 [6]; 0.003162 µM): 1.04 GR | GR value (BSJ-03-123 [6]; 0.01 µM): 0.933 GR | GR value (BSJ-03-123 [6]; 0.03162 µM): 1.05 GR | GR value (BSJ-03-123 [6]; 0.1 µM): 0.961 GR | GR value (BSJ-03-123 [6]; 0.3162 µM): 1.03 GR | GR value (BSJ-03-123 [6]; 1 µM): 0.918 GR | GR value (BSJ-03-123 [6]; 3.162 µM): 0.977 GR | GR value (BSJ-03-123 [6]; 10 µM): 0.525 GR | GR value ([7]; 0.001 µM): 1.03 GR | GR value ([7]; 0.003162 µM): 1.04 GR | GR value ([7]; 0.01 µM): 1.06 GR | GR value ([7]; 0.03162 µM): 1.08 GR | GR value ([7]; 0.1 µM): 0.973 GR | GR value ([7]; 0.3162 µM): 0.941 GR | GR value ([7]; 1 µM): 0.81 GR | GR value ([7]; 3.162 µM): 0.598 GR | GR value ([7]; 10 µM): 0.321 GR | GR value (Neratinib/HKI272 [8]; 0.0003162 µM): 0.987 GR | GR value (Neratinib/HKI272 [8]; 0.001 µM): 1.03 GR | GR value (Neratinib/HKI272 [8]; 0.003162 µM): 0.951 GR | GR value (Neratinib/HKI272 [8]; 0.01 µM): 0.945 GR | GR value (Neratinib/HKI272 [8]; 0.03162 µM): 0.897 GR | GR value (Neratinib/HKI272 [8]; 0.1 µM): 0.824 GR | GR value (Neratinib/HKI272 [8]; 0.3162 µM): 0.735 GR | GR value (Neratinib/HKI272 [8]; 1 µM): 0.633 GR | GR value (Neratinib/HKI272 [8]; 3.162 µM): 0.295 GR | GR value ([9]; 0.0001 µM): 1.02 GR | GR value ([9]; 0.0003162 µM): 1.03 GR | GR value ([9]; 0.001 µM): 1.06 GR | GR value ([9]; 0.003162 µM): 1.1 GR | GR value ([9]; 0.01 µM): 0.983 GR | GR value ([9]; 0.03162 µM): 0.0186 GR | GR value ([9]; 0.1 µM): -0.185 GR | GR value ([9]; 0.3162 µM): -0.211 GR | GR value ([9]; 1 µM): -0.206 GR | GR value (LEE011/Ribociclib [10]; 0.001 µM): 0.945 GR | GR value (LEE011/Ribociclib [10]; 0.003162 µM): 0.893 GR | GR value (LEE011/Ribociclib [10]; 0.01 µM): 1.14 GR | GR value (LEE011/Ribociclib [10]; 0.03162 µM): 1.02 GR | GR value (LEE011/Ribociclib [10]; 0.1 µM): 1 GR | GR value (LEE011/Ribociclib [10]; 0.3162 µM): 0.875 GR | GR value (LEE011/Ribociclib [10]; 1 µM): 0.964 GR | GR value (LEE011/Ribociclib [10]; 3.162 µM): 1.02 GR | GR value (LEE011/Ribociclib [10]; 10 µM): 1.11 GR
